Test results: US20250296959A1, “B7-H3 TARGETING PEPTIDES AND CONSTRUCTS THEREOF” (Mariana Oncology Inc., priority 2024, published 2025)
Positions of bridges follow the written chain, without caps; N, C: chain ends. Non-standard residues stand in square brackets, D forms with d. Residues, ends and D or L forms follow the SMILES beside them. *: point of attachment. DOTA = O=C(O)CN1CCN(CC(=O)O)CCN(CC(=O)*)CCN(CC(=O)O)CC1; Tyr(SO2F) = N[C@@H](Cc1ccc(OS(=O)(=O)F)cc1)C(=O)O; Trp(5-F) = N[C@@H](Cc1c[nH]c2ccc(F)cc12)C(=O)O; Pro(trans-4-F) = O=C(O)[C@@H]1C[C@@H](F)CN1; 1Nal = N[C@@H](Cc1cccc2ccccc12)C(=O)O; Ala(4-THP) = N[C@@H](CC1CCOCC1)C(=O)O; Val(3-OH) = CC(C)(O)[C@H](N)C(=O)O; NMeF = CN[C@@H](Cc1ccccc1)C(=O)O; tBuAla = CC(C)(C)C[C@H](N)C(=O)O; 4Pal = N[C@@H](Cc1ccncc1)C(=O)O; Tle = CC(C)(C)[C@H](N)C(=O)O; hLeu = CC(C)CC[C@H](N)C(=O)O

Target: T1, human 4lg B7-H3 (Homo sapiens, UniProt Q5ZPR3)
T1 sequence (Q5ZPR3 29-534): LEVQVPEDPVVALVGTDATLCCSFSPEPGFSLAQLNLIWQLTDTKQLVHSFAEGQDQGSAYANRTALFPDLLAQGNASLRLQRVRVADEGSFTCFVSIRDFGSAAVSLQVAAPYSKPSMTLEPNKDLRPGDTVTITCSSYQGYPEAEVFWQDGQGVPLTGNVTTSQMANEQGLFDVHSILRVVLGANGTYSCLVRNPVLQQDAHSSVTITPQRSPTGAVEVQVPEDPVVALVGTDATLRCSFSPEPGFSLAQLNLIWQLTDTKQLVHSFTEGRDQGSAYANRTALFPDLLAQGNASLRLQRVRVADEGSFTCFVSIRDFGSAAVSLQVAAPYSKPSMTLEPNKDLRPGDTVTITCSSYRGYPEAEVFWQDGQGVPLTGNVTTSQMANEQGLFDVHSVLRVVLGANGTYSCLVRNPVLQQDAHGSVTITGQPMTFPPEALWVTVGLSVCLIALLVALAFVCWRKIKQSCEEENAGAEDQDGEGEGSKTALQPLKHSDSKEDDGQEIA
Test: Affinity determination by surface plasmon resonance (SPR) to 4Ig B7-H3
Conditions: not given

| SMILES | Kd |
| --- | --- |
| CC(=O)N[C@@H](CCC(C)C)C(=O)N[C@@H](Cc1ccc(O)cc1)C(=O)N[C@H]1CSSC[C@@H](C(=O)N[C@@H](Cc2c[nH]c3ccc(F)cc23)C(=O)N[C@@H](Cc2ccccc2)C(=O)N[C@H](C(=O)N[C@H](CCCCNC(=O)CN2CCN(CC(=O)O)CCN(CC(=O)O)CCN(CC(=O)O)CC2)C(=O)O)C(C)(C)O)NC(=O)[C@H](Cc2ccc(OS(=O)(=O)F)cc2)NC(=O)[C@H](C(C)C)NC(=O)[C@H](CC(=O)O)NC(=O)[C@H](CC2CCOCC2)NC(=O)[C@H](CCCCN)NC(=O)CNC(=O)[C@H](C(C)(C)C)NC1=O [Cpd #389, Ac-hLeu-Y-C-Tbg-G-K-ThpA-D-V-FSY-C-5FW-F-hydroxyVal-dLys(DOTA)-COOH] (Ac-[hLeu]YC[Tle]GK[Ala(4-THP)]DV[Tyr(SO2F)]C[Trp(5-F)]F[Val(3-OH)][dK](DOTA)-OH; disulfide 3-11) | < 1 nM |

Same assay, conditions: SPR KD—25° C., 4Ig B7-H3; 25° C. flow cell temperature

| SMILES | Kd |
| --- | --- |
| CC(=O)N[C@@H](CCC(C)C)C(=O)N[C@@H](Cc1ccc(O)cc1)C(=O)N[C@H]1CSSC[C@@H](C(=O)N[C@@H](Cc2cccc3ccccc23)C(=O)N[C@@H](Cc2ccccc2)C(=O)N2C[C@H](F)C[C@H]2C(=O)O)NC(=O)[C@H](Cc2ccc(O)cc2)NC(=O)[C@H](C(C)C)NC(=O)[C@H](CC(=O)O)NC(=O)[C@H](Cc2ccncc2)NC(=O)[C@H](CCCCNC(=O)CN2CCN(CC(=O)O)CCN(CC(=O)O)CCN(CC(=O)O)CC2)NC(=O)CNC(=O)[C@H](C(C)(C)C)NC1=O [compound 264, Ac-hLeu-Y-C-Tbg-G-Lys(DOTA)-4PyA-D-V-Y-C-1Nal-F-trans4FPro-CONH2] (Ac-[hLeu]YC[Tle]GK(DOTA)[4Pal]DVYC[1Nal]F[Pro(trans-4-F)]-OH; disulfide 3-11) | 1 to 10 nM |
| CC(=O)N[C@@H](CCC(C)C)C(=O)N[C@@H](Cc1ccc(O)cc1)C(=O)N[C@H]1CSSC[C@@H](C(=O)N[C@@H](Cc2c[nH]c3ccc(F)cc23)C(=O)N[C@@H](CC(C)C)C(=O)N[C@H](C(=O)N[C@H](CCCCNC(=O)CN2CCN(CC(=O)O)CCN(CC(=O)O)CCN(CC(=O)O)CC2)C(=O)O)[C@@H](C)O)NC(=O)[C@H](Cc2ccc(O)cc2)NC(=O)[C@H](C(C)C)NC(=O)[C@H](CC(=O)O)NC(=O)[C@H](CC2CCOCC2)NC(=O)[C@H](CCCCN)NC(=O)CNC(=O)[C@H](C(C)(C)C)NC1=O [compound 334, Ac-hLeu-Y-C-Tbg-G-K-ThpA-D-V-Y-C-5FW-Leu-Thr-dLys(DOTA)-COOH] (Ac-[hLeu]YC[Tle]GK[Ala(4-THP)]DVYC[Trp(5-F)]LT[dK](DOTA)-OH; disulfide 3-11) | 10 to 100 nM |

Second part, the compound after the results:

| Kd | SMILES |
| --- | --- |
| 1 to 10 nM | CC(=O)N[C@@H](CCC(C)C)C(=O)N[C@@H](Cc1ccc(O)cc1)C(=O)N[C@H]1CSSC[C@@H](C(=O)N[C@@H](Cc2c[nH]c3ccc(F)cc23)C(=O)N(C)[C@@H](Cc2ccccc2)C(=O)N[C@H](C(=O)N[C@H](CCCCNC(=O)CN2CCN(CC(=O)O)CCN(CC(=O)O)CCN(CC(=O)O)CC2)C(N)=O)[C@@H](C)O)NC(=O)[C@H](Cc2ccc(O)cc2)NC(=O)[C@H](C(C)C)NC(=O)[C@H](CC(=O)O)NC(=O)[C@H](Cc2ccc(O)cc2)NC(=O)[C@H](CCCCN)NC(=O)CNC(=O)[C@H](C(C)C)NC1=O [compound 205, Ac-hLeu-Y-C-V-G-K-Y-D-V-Y-C-5FW-NMePhe-Thr-dLys(DOTA)-CONH2] (Ac-[hLeu]YCVGKYDVYC[Trp(5-F)][NMeF]T[dK](DOTA)-NH2; disulfide 3-11) |
| 10 to 100 nM | CC(=O)N[C@@H](CCC(C)C)C(=O)N[C@@H](Cc1ccc(O)cc1)C(=O)N[C@H]1CSSC[C@@H](C(=O)N[C@@H](Cc2c[nH]c3ccc(F)cc23)C(=O)N[C@@H](Cc2ccccc2)C(=O)N[C@H](C(=O)N[C@H](CCCCNC(=O)CN2CCN(CC(=O)O)CCN(CC(=O)O)CCN(CC(=O)O)CC2)C(N)=O)[C@@H](C)O)NC(=O)[C@H](Cc2ccc(O)cc2)NC(=O)[C@H](C(C)C)NC(=O)[C@H](CC(=O)O)NC(=O)[C@H](Cc2ccc(O)cc2)NC(=O)[C@H](CCCCN)NC(=O)CNC(=O)[C@H](CC(C)(C)C)NC1=O [compound 174, Ac-hLeu-Y-C-tBuAla-G-K-Y-D-V-Y-C-5FW-F-Thr-dLys(DOTA)-CONH2] (Ac-[hLeu]YC[tBuAla]GKYDVYC[Trp(5-F)]FT[dK](DOTA)-NH2; disulfide 3-11) |
